Activity calls are given as the source filed them. The rule behind the calls is not given here.
How the values were obtained:
[1] = target: L-lactate dehydrogenase A chain (Homo sapiens) (UniProt P00338); assay: Inhibition of human recombinant full-length LDHA at 10 uM using sodium pyruvate as substrate after 60 mins by resazurin dye-based assay relative to control
[2] = target: Prostaglandin G/H synthase 1 (Homo sapiens) (UniProt P23219); assay: Inhibition of human recombinant COX1 at 10 uM using arachidonic acid as substrate after 3 mins by fluorimetric analysis relative to control
Prostaglandin G/H synthase 1 (Homo sapiens), sequence (P23219 whole entry): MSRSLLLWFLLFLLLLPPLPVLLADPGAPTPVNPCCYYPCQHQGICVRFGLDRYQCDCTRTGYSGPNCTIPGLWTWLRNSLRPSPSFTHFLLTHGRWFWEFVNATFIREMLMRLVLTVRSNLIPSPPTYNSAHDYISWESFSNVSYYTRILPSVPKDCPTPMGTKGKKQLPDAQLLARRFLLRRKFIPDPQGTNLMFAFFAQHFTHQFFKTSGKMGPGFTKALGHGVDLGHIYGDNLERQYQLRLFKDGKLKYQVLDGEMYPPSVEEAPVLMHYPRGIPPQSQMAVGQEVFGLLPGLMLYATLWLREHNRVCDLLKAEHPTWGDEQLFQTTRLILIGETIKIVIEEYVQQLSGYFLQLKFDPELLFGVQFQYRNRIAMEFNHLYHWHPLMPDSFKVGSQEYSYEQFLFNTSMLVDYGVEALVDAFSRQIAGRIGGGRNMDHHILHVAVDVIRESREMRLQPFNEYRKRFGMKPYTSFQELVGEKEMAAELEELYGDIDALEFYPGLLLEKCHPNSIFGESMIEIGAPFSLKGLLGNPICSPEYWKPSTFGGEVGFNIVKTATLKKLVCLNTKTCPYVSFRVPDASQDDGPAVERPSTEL

[3] = target: T1, D-alanine--D-alanine ligase (Enterococcus faecalis (strain ATCC 700802 / V583)) (UniProt Q47758); assay: Inhibition of Enterococcus faecalis JH2-2 C-terminal 6His-tagged DdlB expressed in Escherichia coli LMG194 assessed as Vmax/Km of ATP at 1 uM by Biomol Green reagent assay (reference value: 0.3 /min)
T1 sequence (whole entry): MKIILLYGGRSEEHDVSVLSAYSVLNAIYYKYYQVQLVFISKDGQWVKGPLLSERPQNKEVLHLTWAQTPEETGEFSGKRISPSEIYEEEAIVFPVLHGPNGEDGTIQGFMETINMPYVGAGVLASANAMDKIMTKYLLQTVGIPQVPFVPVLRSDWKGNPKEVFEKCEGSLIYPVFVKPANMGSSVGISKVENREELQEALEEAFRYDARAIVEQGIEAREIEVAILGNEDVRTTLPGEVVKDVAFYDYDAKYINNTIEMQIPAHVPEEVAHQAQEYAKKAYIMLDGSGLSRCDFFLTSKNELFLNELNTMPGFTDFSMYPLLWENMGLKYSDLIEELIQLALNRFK

[4] = target: 5-hydroxytryptamine receptor 1A (Homo sapiens) (UniProt P08908); assay: Displacement of [3H]8-OH-DPAT from recombinant human 5-HT1A receptor at 10 uM after 60 mins by scintillation counting analysis relative to control
[5] = target: Monoglyceride lipase (Homo sapiens) (UniProt Q99685); assay: Inhibition of human MAGL at 10 uM relative to control
Monoglyceride lipase (Homo sapiens), sequence (Q99685 whole entry): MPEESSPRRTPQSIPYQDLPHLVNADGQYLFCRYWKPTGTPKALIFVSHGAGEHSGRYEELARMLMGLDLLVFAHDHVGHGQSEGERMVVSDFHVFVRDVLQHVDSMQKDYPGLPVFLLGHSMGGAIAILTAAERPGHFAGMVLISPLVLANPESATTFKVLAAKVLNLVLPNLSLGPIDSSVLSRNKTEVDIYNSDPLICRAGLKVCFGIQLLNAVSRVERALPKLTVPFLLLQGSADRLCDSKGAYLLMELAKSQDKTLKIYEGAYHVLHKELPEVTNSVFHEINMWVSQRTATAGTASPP

[6] = target: DNA gyrase (Staphylococcus aureus) (UniProt P0A0K8+P20831); assay: Inhibition of Staphylococcus aureus DNA gyrase at 10 uM using supercoiled pBR322 DNA as substrate after 1 hr by ethidium bromide staining-based agarose gel electrophoresis relative to control; assay type: protein-complex assay
DNA gyrase (Staphylococcus aureus), sequence (P0A0K8 2-644 limits assumed): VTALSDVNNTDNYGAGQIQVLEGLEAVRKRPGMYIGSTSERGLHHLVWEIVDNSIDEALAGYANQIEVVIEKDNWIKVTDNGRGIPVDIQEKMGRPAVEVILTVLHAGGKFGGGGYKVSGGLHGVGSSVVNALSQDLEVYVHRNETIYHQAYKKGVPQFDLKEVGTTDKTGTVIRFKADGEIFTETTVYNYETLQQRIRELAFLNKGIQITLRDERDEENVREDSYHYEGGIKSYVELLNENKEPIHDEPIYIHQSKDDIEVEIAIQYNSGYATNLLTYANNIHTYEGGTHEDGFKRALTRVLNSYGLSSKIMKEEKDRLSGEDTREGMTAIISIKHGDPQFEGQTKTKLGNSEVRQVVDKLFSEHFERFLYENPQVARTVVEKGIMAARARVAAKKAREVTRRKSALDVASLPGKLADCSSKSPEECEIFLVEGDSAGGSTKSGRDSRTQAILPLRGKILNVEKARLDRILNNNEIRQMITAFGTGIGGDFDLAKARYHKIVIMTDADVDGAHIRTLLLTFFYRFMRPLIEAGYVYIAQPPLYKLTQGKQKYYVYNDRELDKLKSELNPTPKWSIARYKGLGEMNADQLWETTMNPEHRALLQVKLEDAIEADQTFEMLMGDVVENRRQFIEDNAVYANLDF
DNA gyrase (Staphylococcus aureus), sequence (P20831 whole entry partner): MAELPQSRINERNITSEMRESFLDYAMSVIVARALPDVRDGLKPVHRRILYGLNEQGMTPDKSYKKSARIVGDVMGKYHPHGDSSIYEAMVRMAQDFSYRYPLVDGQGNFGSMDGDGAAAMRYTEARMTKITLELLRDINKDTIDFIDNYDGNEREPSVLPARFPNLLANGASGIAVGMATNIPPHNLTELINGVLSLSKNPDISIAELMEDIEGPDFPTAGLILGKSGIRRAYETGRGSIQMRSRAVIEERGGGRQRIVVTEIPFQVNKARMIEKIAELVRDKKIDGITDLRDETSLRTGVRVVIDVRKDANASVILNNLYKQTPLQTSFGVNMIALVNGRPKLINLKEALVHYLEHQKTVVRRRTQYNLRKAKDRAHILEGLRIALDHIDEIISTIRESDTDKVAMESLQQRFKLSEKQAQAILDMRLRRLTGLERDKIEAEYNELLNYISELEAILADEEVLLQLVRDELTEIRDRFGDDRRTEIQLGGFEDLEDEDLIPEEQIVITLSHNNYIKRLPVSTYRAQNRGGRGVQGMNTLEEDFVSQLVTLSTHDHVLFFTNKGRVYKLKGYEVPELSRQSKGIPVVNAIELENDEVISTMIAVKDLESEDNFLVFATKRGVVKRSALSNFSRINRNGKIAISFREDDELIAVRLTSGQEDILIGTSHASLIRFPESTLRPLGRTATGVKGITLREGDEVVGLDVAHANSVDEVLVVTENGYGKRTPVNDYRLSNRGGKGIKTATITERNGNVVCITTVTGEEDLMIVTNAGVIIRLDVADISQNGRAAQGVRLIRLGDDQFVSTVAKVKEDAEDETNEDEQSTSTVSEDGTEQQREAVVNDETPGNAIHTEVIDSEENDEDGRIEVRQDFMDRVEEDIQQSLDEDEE

[7] = target: T1, D-alanine--D-alanine ligase (Enterococcus faecalis (strain ATCC 700802 / V583)); assay: Inhibition of Enterococcus faecalis JH2-2 C-terminal 6His-tagged DdlB expressed in Escherichia coli LMG194 assessed as Vmax/Km of D-Ala at 1 uM by Biomol Green reagent assay (reference value: 11.02 /min)
Pseudomonas aeruginosa = assay: Antibacterial activity against Pseudomonas aeruginosa PAO1 after 18 to 24 hrs by microdilution assay; assay type: functional, organism-based
Escherichia coli = assay: Antibacterial activity against Escherichia coli ATCC 25922 after 18 to 24 hrs by microdilution assay; assay type: functional, organism-based
[8] = target: T1, D-alanine--D-alanine ligase (Enterococcus faecalis (strain ATCC 700802 / V583)); assay: Reversible inhibition of Enterococcus faecalis JH2-2 C-terminal 6His-tagged DdlB expressed in Escherichia coli LMG194 at 3 uM preincubated for 30 mins followed by 10 times dilution followed by 20 mins incubation with substrate by Biomol Green reagent assay
[9] = target: Prothrombin (Homo sapiens) (UniProt P00734); assay: Inhibition of human thrombin at 10 uM using Z-GPR-AMC as substrate after 30 mins by fluorimetric analysis relative to control
Klebsiella pneumoniae = assay: Antibacterial activity against Klebsiella pneumoniae ATCC 700603 after 18 to 24 hrs by microdilution assay; assay type: functional, organism-based
[10] = target: Acetylcholinesterase (Homo sapiens) (UniProt P22303); assay: Inhibition of human recombinant acetylcholinesterase at 10 uM using acetylthiocholine as substrate after 30 mins by spectrophotometric analysis relative to control
Acetylcholinesterase (Homo sapiens), sequence (P22303 whole entry): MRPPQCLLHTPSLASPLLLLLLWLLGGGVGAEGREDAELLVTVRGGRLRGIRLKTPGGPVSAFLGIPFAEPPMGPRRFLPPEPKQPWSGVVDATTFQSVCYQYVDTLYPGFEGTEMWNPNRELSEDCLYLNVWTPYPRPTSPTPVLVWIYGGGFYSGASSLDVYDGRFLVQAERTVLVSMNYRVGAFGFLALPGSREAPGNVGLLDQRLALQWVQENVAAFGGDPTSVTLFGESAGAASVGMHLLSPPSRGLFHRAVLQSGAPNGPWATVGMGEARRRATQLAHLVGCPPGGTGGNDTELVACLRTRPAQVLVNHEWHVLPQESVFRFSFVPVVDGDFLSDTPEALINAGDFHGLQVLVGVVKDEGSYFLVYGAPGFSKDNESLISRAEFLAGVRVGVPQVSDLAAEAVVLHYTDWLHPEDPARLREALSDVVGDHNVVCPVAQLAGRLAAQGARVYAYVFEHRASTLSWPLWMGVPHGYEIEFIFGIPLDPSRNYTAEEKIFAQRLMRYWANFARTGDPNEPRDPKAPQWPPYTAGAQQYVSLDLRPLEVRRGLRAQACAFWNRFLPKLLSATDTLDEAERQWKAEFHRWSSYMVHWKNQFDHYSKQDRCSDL

[11] = target: Muscarinic acetylcholine receptor M1 (Homo sapiens) (UniProt P11229); assay: Displacement of […] from human recombinant M1 receptor at 10 uM after 60 mins by scintillation counting analysis relative to control
Bacillus cereus = assay: Inhibition of Bacillus cereus beta-lactamase at 10 uM using nitrocefin as substrate preincubated for 15 mins followed by substrate addition and measured after 60 mins by spectrophotometric analysis relative to control
Staphylococcus aureus [12] = assay: Inhibition of Ddl in Staphylococcus aureus ATCC 25923 assessed as increase in [D-Ala]/[D-Ala-D-Ala] ratio at 2 times MIC after 30 mins by LC-MS/MS analysis
[13] = target: T1, D-alanine--D-alanine ligase (Enterococcus faecalis (strain ATCC 700802 / V583)); assay: Mixed non-competitive type inhibition of Enterococcus faecalis JH2-2 C-terminal 6His-tagged DdlB expressed in Escherichia coli LMG194 at 1 to 10 uM preincubated for 30 mins followed increasing substrate and fixed ATP addition and measured after 20 mins by Biomol Green reagent assay
[14] = target: Indoleamine 2,3-dioxygenase 1 (Homo sapiens) (UniProt P14902); assay: Inhibition of human IDO at 10 uM using L-tryptophan as substrate after 30 mins by Ehrlich's reagent based assay relative to control
Indoleamine 2,3-dioxygenase 1 (Homo sapiens), sequence (P14902 whole entry, looked up): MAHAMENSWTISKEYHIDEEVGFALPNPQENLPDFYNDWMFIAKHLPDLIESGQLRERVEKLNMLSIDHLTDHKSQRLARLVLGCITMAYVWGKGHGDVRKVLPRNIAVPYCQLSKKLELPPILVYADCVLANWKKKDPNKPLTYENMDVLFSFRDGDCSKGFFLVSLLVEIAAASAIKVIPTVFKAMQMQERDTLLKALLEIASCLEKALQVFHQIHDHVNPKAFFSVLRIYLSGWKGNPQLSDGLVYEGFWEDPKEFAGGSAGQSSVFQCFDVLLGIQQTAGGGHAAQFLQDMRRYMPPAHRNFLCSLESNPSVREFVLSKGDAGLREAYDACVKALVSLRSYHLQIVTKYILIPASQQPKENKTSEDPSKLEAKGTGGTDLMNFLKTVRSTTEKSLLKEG

[15] = target: Peroxisome proliferator-activated receptor alpha (Homo sapiens) (UniProt Q07869); assay: Displacement of [3H]WY 14643 from human recombinant PPARalpha receptor at 10 uM at 10 uM after 120 mins by scintillation counting analysis relative to control
[16] = target: Angiotensin-converting enzyme (Homo sapiens) (UniProt P12821); assay: Inhibition of human recombinant ACE at 10 uM using Abz-FRK(Dnp)-P-OH as substrate after 30 mins by fluorimetric analysis relative to control
[17] = target: D-3-phosphoglycerate dehydrogenase (Homo sapiens) (UniProt O43175); assay: Inhibition of human recombinant C-terminal His-tagged PHGDH (1 to 533 residues) expressed in Escherichia coli at 10 uM using 3-phosphoglycerate as substrate relative to control
D-3-phosphoglycerate dehydrogenase (Homo sapiens), sequence (O43175 whole entry, the tested form may be a part): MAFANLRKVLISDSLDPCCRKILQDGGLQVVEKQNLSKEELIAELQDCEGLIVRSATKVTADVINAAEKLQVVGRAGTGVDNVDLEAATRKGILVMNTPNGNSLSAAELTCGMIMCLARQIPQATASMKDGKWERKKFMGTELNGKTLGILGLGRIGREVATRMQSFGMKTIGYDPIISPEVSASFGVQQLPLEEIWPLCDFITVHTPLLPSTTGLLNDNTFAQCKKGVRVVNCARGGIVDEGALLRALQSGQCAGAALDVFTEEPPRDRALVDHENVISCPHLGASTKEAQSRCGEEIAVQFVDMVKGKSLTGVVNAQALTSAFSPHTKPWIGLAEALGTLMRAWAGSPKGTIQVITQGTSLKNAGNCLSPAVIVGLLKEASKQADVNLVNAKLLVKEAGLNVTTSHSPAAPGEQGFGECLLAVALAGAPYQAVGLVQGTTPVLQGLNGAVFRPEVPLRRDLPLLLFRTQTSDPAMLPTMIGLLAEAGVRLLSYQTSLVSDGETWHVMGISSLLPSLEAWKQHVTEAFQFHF

[18] = target: T1, D-alanine--D-alanine ligase (Enterococcus faecalis (strain ATCC 700802 / V583)); assay: Inhibition of Enterococcus faecalis JH2-2 C-terminal 6His-tagged DdlB expressed in Escherichia coli LMG194 at 10 uM preincubated for 30 mins followed by substrate addition and measured after 20 mins by Biomol Green reagent assay relative to control
[19] = target: Tyrosine-protein kinase Lck (Homo sapiens) (UniProt P06239); assay: Inhibition of human recombinant Lck at 10 uM using Ulight-Poly GAT[EAY(1:1:1)]n as substrate after 10 mins by LANCE analysis relative to control
Tyrosine-protein kinase Lck (Homo sapiens), sequence (P06239 2-509 limits assumed): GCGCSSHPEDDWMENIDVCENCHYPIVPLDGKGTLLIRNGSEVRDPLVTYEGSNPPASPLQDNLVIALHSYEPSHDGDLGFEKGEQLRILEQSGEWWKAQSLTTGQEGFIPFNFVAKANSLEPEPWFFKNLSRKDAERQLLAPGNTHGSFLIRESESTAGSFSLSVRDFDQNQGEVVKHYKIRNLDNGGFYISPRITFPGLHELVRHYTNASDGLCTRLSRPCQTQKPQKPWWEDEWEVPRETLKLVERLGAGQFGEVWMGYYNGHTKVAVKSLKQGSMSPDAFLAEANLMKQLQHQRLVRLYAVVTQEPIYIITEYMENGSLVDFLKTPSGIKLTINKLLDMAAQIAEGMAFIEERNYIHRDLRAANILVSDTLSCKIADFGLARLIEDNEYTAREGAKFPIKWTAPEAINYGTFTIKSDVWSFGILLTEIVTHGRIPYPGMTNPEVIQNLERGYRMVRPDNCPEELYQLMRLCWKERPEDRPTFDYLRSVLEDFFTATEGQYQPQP

[20] = target: Secretory phospholipase A2 (Homo sapiens) (UniProt Q5R387+Q9NZK7+P14555+Q9BZM2+Q9UNK4+P39877+O15496+P04054+Q9NZ20+Q9BZM1+Q9BX93); assay: Inhibition of human sPLA2 at 10 uM relative to control; assay type: protein assay
[21] = target: cGMP-inhibited 3',5'-cyclic phosphodiesterase 3A (Homo sapiens) (UniProt Q14432); assay: Inhibition of human recombinant PDE3A using [3H]cAMP at 10 uM after 20 mins by scintillation counting analysis relative to control
[22] = target: Arginase-1 (Homo sapiens) (UniProt P05089); assay: Inhibition of human recombinant Arg1 at 10 uM using L-arginine as substrate after 5 mins in presence of [guanidino-14C]-L-arginine by liquid scintillation counting analysis relative to control
Arginase-1 (Homo sapiens), sequence (P05089 whole entry): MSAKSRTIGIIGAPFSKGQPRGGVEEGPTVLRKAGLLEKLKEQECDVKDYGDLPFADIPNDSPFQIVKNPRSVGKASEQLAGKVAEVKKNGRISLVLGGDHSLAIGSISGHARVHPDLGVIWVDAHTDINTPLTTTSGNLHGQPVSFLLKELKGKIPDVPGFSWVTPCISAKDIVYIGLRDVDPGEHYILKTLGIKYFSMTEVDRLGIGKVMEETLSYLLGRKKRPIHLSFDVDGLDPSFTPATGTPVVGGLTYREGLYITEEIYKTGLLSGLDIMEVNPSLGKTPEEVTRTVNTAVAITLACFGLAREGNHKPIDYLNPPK

Staphylococcus aureus [23] = assay: Bactericidal activity against Staphylococcus aureus ATCC 25923 assessed as reduction of bacterial load at 2 to 5 times MIC after 24 hrs by time kill assay; assay type: functional, organism-based

For `O=C(NNC(=S)Nc1ccc(Cl)c(Cl)c1)c1ccccc1O`, the inhibition [1] was under 30%, the inhibition [2] was under 30% and the Vmax/Km [3] was 0.33 min⁻¹. For the same compound, the inhibition [4] was under 30%, the inhibition [5] was under 30% and the inhibition [6] was under 30%. The Vmax/Km [7] was 6.93 min⁻¹, the MIC (Pseudomonas aeruginosa) was “inactive” and the MIC (Escherichia coli) was “inactive”. The inhibition [8] was “Active”, the inhibition [9] was under 30% and the MIC (Klebsiella pneumoniae) was “inactive”. It also gave an inhibition [10] of under 30%, an inhibition [11] of under 30% and an inhibition (Bacillus cereus) of under 30%. The inhibition (Staphylococcus aureus [12]) was “Active”, the inhibition [13] was “Active” and the inhibition [14] was under 30%. The inhibition [15] was under 30%, the inhibition [16] was under 30% and the inhibition [17] was under 30%. The inhibition [18] was over 30%, the inhibition [19] was under 30% and the inhibition [20] was under 30%. The inhibition [21] was under 30%, the inhibition [22] was under 30% and the Activity (Staphylococcus aureus [23]) was “Active”.
